Tested on: diamondback moth (Plutella xylostella)
Experiment: Insecticidal effect on diamondback moth (Test Example 1)
Type: in vivo
Details: for Insecticidal effect, Test Example 1: diamondback moth, judged by the mortality criterion of Test Example 1; for Insecticidal effect on diamondback moth (Test Example 1), judged grade: mortality judged according to the criterion shown in Test Example 1
Protocol: Insecticidal effect on diamondback moth (Plutella xylostella) Adult diamondback moths were released and allowed to oviposit on a Chinese cabbage seedling. […] After air-drying, it was allowed to stand in a room thermostated at 25° C. Six days after the immersion, the hatched insects were counted. The mortality was calculated according to the following equation and the insecticidal effect was judged according to the criterion shown below. The test was carried out with triplicate groups of 10 insects. [table]

In the case of `CCCCc1ccc(NC(=O)c2c(Cl)cccc2C(=O)NC(C)C)cc1` [compound 195], the “Insecticidal effect, Test Example 1” value is reported as “A (100)”.

With `CC(C)NC(=O)c1cccc(Cl)c1C(=O)Nc1ccc(C(F)(F)C(F)(F)C(F)(F)C(F)(F)F)cc1` [compound 199] the “Insecticidal effect, Test Example 1” value was “A (100)”.

For `CC(C)NC(=O)c1cccc(Cl)c1C(=O)Nc1ccc(SCC(F)(F)F)cc1` [compound 202], the “Insecticidal effect, Test Example 1” value was “A (100)”.

In the case of `CC(C)NC(=O)c1cccc(Cl)c1C(=O)Nc1ccc(SC(F)(F)C(F)F)cc1` [compound 203], the “Insecticidal effect, Test Example 1” value is reported as “A (100)”.

For `CC(=O)c1ccc(NC(=O)c2c(Cl)cccc2C(=O)NC(C)C)cc1` [compound 207], the “Insecticidal effect, Test Example 1” value was “A (100)”.

With `CC(C)NC(=O)c1cccc(Cl)c1C(=O)Nc1cccc(Cl)c1Cl` [compound 208] the “Insecticidal effect, Test Example 1” value was “A (100)”.

For `CC(C)NC(=O)c1cccc(Cl)c1C(=O)Nc1cc(Cl)c(OC(F)F)c(Cl)c1` [compound 227], the “Insecticidal effect, Test Example 1” value was “A (100)”.

With `CC(C)NC(=O)c1cccc(Cl)c1C(=O)Nc1ccc(OC(F)F)c(F)c1` [compound 233] the “Insecticidal effect, Test Example 1” value was “A (100)”.

With `Cc1c(NC(=O)c2c(Cl)cccc2C(=O)NC(C)C)cccc1OC(F)(F)C(F)Cl` (stereo not drawn) [compound 240] the “Insecticidal effect, Test Example 1” value was “A (100)”.

In the case of `CC(C)NC(=O)c1cccc(Cl)c1C(=O)Nc1ccc2[nH]c(C(F)(F)F)nc2c1` [compound 256], the “Insecticidal effect, Test Example 1” value is reported as “A (100)”.

With `Cc1cc(C)c(NC(=O)c2cccc(Br)c2C(=O)NC(C)C)c(C)c1` [compound 265] the “Insecticidal effect, Test Example 1” value was “A (100)”.

`Cc1c(NC(=O)c2cccc(Br)c2C(=O)NC(C)C)ccc(OC(F)F)c1C` [compound 295] was tested, and the “Insecticidal effect, Test Example 1” value was “D (79-50)”.

`Cc1cc(C)c(NC(=O)c2c(Br)cccc2C(=O)NC(C)C)c(C)c1` [compound 304] was tested, and the “Insecticidal effect, Test Example 1” value was “A (100)”.

In the case of `Cc1c(Cl)ccc(NC(=O)c2c(Br)cccc2C(=O)NC(C)C)c1C` [compound 308], the “Insecticidal effect, Test Example 1” value is reported as “A (100)”.

`CCc1cc(Cl)ccc1NC(=O)c1c(Br)cccc1C(=O)NC(C)C` [compound 310] was tested, and the “Insecticidal effect, Test Example 1” value was “A (100)”.

In the case of `Cc1cc(OC(F)F)ccc1NC(=O)c1c(C(=O)NC(C)C)ccc(Br)c1Br` [compound 342], the “Insecticidal effect, Test Example 1” value is reported as “A (100)”.

For `Cc1cc(Cl)ccc1NC(=O)c1c(C(=O)NC(C)C)ccc(Br)c1Br` [compound 343], the “Insecticidal effect, Test Example 1” value was “A (100)”.

In the case of `Cc1cc(Oc2cccc(C(F)(F)F)c2)ccc1NC(=O)c1cccc(I)c1C(=O)NC(C)C` [compound 398], the “Insecticidal effect, Test Example 1” value is reported as “A (100)”.

For `Cc1cc(SC(C)C)ccc1NC(=O)c1cccc(I)c1C(=O)NC(C)C` [compound 402], the “Insecticidal effect, Test Example 1” value was “A (100)”.

With `CC(C)NC(=O)c1cccc(I)c1C(=O)Nc1ccc(SC(F)(F)C(F)F)cc1` [compound 422] the “Insecticidal effect, Test Example 1” value was “A (100)”.

`Cc1cc(Cl)ccc1NC(=O)c1c(I)cccc1C(=O)NC(C)C` [compound 428] was tested, and the “Insecticidal effect, Test Example 1” value was “A (100)”.

For `Cc1c(Cl)ccc(NC(=O)c2c(I)cccc2C(=O)NC(C)C)c1C` [compound 434], the “Insecticidal effect, Test Example 1” value was “A (100)”.

For `Cc1cc(OC(C)C)ccc1NC(=O)c1c(I)cccc1C(=O)NC(C)C` [compound 442], the “Insecticidal effect, Test Example 1” value was “A (100)”.

For `CC(C)NC(=O)c1cccc(I)c1C(=O)Nc1cc(Cl)c(OC(F)F)c(Cl)c1` [compound 449], the “Insecticidal effect on diamondback moth (Test Example 1), judged grade” value (from here on “Insecticidal effect on diamondback moth”) was “A (100)”.

`Cc1cc(Oc2cccc(C(F)(F)F)c2)ccc1NC(=O)c1c(I)cccc1C(=O)NC(C)C` [compound 458] was tested, and the “Insecticidal effect on diamondback moth” value was “A (100)”.

For `Cc1cc(Oc2c(F)c(F)c(F)c(F)c2F)ccc1NC(=O)c1c(I)cccc1C(=O)NC(C)C` [compound 459], the “Insecticidal effect on diamondback moth” value was “A (100)”.

`Cc1cc(Oc2ncc(C(F)(F)F)cc2Cl)ccc1NC(=O)c1c(I)cccc1C(=O)NC(C)C` [compound 461] was tested, and the “Insecticidal effect on diamondback moth” value was “A (100)”.

`Cc1cc(SC(C)C)ccc1NC(=O)c1c(I)cccc1C(=O)NC(C)C` [compound 462] was tested, and the “Insecticidal effect on diamondback moth” value was “A (100)”.

In the case of `Cc1cc(Sc2ccc(Cl)cc2)ccc1NC(=O)c1c(I)cccc1C(=O)NC(C)C` [compound 463], the “Insecticidal effect on diamondback moth” value is reported as “A (100)”.

`CC(C)NC(=O)c1cccc(I)c1C(=O)Nc1ccc(OC(F)F)cc1C(F)(F)F` [compound 465] was tested, and the “Insecticidal effect on diamondback moth” value was “A (100)”.

In the case of `CC(C)NC(=O)c1c(F)cccc1C(=O)Nc1ccc(SCC(F)(F)F)cc1` [compound 478], the “Insecticidal effect on diamondback moth” value is reported as “A (100)”.

In the case of `CC(C)NC(=O)c1c(F)cccc1C(=O)Nc1cc(Cl)c(OC(F)F)c(Cl)c1` [compound 506], the “Insecticidal effect on diamondback moth” value is reported as “A (100)”.

With `Cc1cc(Oc2c(F)c(F)c(F)c(F)c2F)ccc1NC(=O)c1cccc(F)c1C(=O)NC(C)C` [compound 520] the “Insecticidal effect on diamondback moth” value was “A (100)”.

In the case of `CC(C)NC(=O)c1cccc(F)c1C(=O)Nc1ccc(OC(F)(F)F)cc1` [compound 537], the “Insecticidal effect on diamondback moth” value is reported as “A (100)”.

`CC(C)NC(=O)c1cccc(F)c1C(=O)Nc1ccc(SCC(F)(F)F)cc1` [compound 539] was tested, and the “Insecticidal effect on diamondback moth” value was “A (100)”.

For `CC(C)NC(=O)c1cccc(F)c1C(=O)Nc1ccc(SC(F)(F)C(F)F)cc1` [compound 540], the “Insecticidal effect on diamondback moth” value was “A (100)”.

For `Cc1cc(OC(F)F)ccc1NC(=O)c1c(F)cccc1C(=O)NC(C)C` [compound 559], the “Insecticidal effect on diamondback moth” value was “A (100)”.

For `CC(C)NC(=O)c1cccc(F)c1C(=O)Nc1cc(Cl)c(OC(F)F)c(Cl)c1` [compound 560], the “Insecticidal effect on diamondback moth” value was “A (100)”.

In the case of `Cc1cc(Oc2c(F)c(F)c(F)c(F)c2F)ccc1NC(=O)c1c(F)cccc1C(=O)NC(C)C` [compound 573], the “Insecticidal effect on diamondback moth” value is reported as “A (100)”.

With `CC(C)NC(=O)c1c(C(=O)Nc2cccc(Cl)c2)cccc1[N+](=O)[O-]` [compound 587] the “Insecticidal effect on diamondback moth” value was “A (100)”.

`CC(C)NC(=O)c1c(C(=O)Nc2ccc(Cl)cc2)cccc1[N+](=O)[O-]` [compound 588] was tested, and the “Insecticidal effect on diamondback moth” value was “A (100)”.

`CC(C)NC(=O)c1c(C(=O)Nc2cccc(Br)c2)cccc1[N+](=O)[O-]` [compound 590] was tested, and the “Insecticidal effect on diamondback moth” value was “A (100)”.

With `CC(C)NC(=O)c1c(C(=O)Nc2ccccc2F)cccc1[N+](=O)[O-]` [compound 592] the “Insecticidal effect on diamondback moth” value was “A (100)”.

For `CC(C)NC(=O)c1c(C(=O)Nc2cccc(F)c2)cccc1[N+](=O)[O-]` [compound 593], the “Insecticidal effect on diamondback moth” value was “A (100)”.

`CC(C)NC(=O)c1c(C(=O)Nc2ccc(F)cc2)cccc1[N+](=O)[O-]` [compound 594] was tested, and the “Insecticidal effect on diamondback moth” value was “A (100)”.

For `CC(C)NC(=O)c1c(C(=O)Nc2cccc(C#N)c2)cccc1[N+](=O)[O-]` [compound 597], the “Insecticidal effect on diamondback moth” value was “B (99-90)”.

`CC(C)NC(=O)c1c(C(=O)Nc2ccc(C#N)cc2)cccc1[N+](=O)[O-]` [compound 598] was tested, and the “Insecticidal effect on diamondback moth” value was “A (100)”.

With `Cc1cccc(NC(=O)c2cccc([N+](=O)[O-])c2C(=O)NC(C)C)c1` [compound 600] the “Insecticidal effect on diamondback moth” value was “A (100)”.

In the case of `Cc1ccc(NC(=O)c2cccc([N+](=O)[O-])c2C(=O)NC(C)C)cc1` [compound 601], the “Insecticidal effect on diamondback moth” value is reported as “A (100)”.

`CC(C)NC(=O)c1c(C(=O)Nc2ccccc2C(F)(F)F)cccc1[N+](=O)[O-]` [compound 608] was tested, and the “Insecticidal effect on diamondback moth” value was “A (100)”.

In the case of `COc1cccc(NC(=O)c2cccc([N+](=O)[O-])c2C(=O)NC(C)C)c1` [compound 613], the “Insecticidal effect on diamondback moth” value is reported as “A (100)”.

`COc1ccc(NC(=O)c2cccc([N+](=O)[O-])c2C(=O)NC(C)C)cc1` [compound 614] was tested, and the “Insecticidal effect on diamondback moth” value was “A (100)”.

With `CC(C)NC(=O)c1c(C(=O)Nc2cccc(OC(C)C)c2)cccc1[N+](=O)[O-]` [compound 615] the “Insecticidal effect on diamondback moth” value was “A (100)”.

`CSc1cccc(NC(=O)c2cccc([N+](=O)[O-])c2C(=O)NC(C)C)c1` [compound 621] was tested, and the “Insecticidal effect on diamondback moth” value was “A (100)”.

With `CSc1ccccc1NC(=O)c1cccc([N+](=O)[O-])c1C(=O)NC(C)C` [compound 622] the “Insecticidal effect on diamondback moth” value was “A (100)”.

With `CC(C)NC(=O)c1c(C(=O)Nc2ccc(SCC(F)(F)F)cc2)cccc1[N+](=O)[O-]` [compound 624] the “Insecticidal effect on diamondback moth” value was “A (100)”.

For `CC(C)NC(=O)c1c(C(=O)Nc2ccc(SC(F)(F)C(F)F)cc2)cccc1[N+](=O)[O-]` [compound 626], the “Insecticidal effect on diamondback moth” value was “A (100)”.

`CC(C)NC(=O)c1c(C(=O)Nc2cc(Cl)cc(Cl)c2)cccc1[N+](=O)[O-]` [compound 637] was tested, and the “Insecticidal effect on diamondback moth” value was “A (100)”.

With `CC(C)NC(=O)c1c(C(=O)Nc2cccc(F)c2F)cccc1[N+](=O)[O-]` [compound 638] the “Insecticidal effect on diamondback moth” value was “B (99-90)”.

`CC(C)NC(=O)c1c(C(=O)Nc2ccc(F)cc2F)cccc1[N+](=O)[O-]` [compound 639] was tested, and the “Insecticidal effect on diamondback moth” value was “A (100)”.
